From PMC11215747, “Improved Rigidin-Inspired Antiproliferative Agents with Modifications on the 7-Deazahypoxanthine C7/C8 Ring Systems” (Journal of Medicinal Chemistry, 2024)
“Also recorded” adds a separate entry of the source. Read-outs that look alike come from different tables or passages of the source. One block for each compound: values may come before it.

Experiments:
tubulin = molecular target: T1, tubulin (Sus scrofa, UniProt P02554); assay: Fluorescence-based tubulin polymerization assay; assay type: biochemical; conditions: relative to 1% DMSO control
T1 construct: purchased Cytoskeleton, Inc
T1 sequence (P02554 whole entry): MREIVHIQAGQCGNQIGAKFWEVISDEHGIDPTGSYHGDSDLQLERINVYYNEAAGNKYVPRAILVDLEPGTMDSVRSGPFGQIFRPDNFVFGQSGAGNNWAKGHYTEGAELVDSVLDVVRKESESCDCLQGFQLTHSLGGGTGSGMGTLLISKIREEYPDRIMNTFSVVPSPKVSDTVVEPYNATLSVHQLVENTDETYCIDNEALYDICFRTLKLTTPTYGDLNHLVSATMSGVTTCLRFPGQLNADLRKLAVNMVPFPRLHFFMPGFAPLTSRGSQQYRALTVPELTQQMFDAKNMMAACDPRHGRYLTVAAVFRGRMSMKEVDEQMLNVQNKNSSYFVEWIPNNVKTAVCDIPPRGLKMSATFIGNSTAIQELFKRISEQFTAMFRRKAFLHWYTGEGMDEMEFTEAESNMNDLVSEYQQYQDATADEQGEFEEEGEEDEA
T1 sequence (P02550 whole entry partner): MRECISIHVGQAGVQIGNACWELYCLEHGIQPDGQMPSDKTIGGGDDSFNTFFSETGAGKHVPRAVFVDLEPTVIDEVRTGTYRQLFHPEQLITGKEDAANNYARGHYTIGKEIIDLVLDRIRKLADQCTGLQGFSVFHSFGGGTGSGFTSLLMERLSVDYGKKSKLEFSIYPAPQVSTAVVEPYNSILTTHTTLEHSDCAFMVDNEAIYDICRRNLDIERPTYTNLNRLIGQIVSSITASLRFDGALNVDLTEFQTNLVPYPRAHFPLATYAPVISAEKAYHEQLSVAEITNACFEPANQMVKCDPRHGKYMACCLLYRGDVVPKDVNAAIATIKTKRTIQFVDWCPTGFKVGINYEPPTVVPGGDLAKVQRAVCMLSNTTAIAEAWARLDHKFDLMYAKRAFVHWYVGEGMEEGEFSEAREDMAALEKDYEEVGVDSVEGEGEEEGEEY
Protocol: The fluorescence-based tubulin polymerization assay from Cytoskeleton, Inc. was used. […] The tubulin reaction mixture was prepared per manufacturer’s instructions, kept on ice, and used within ∼15 min of preparation. A Biotek Synergy H4 hybrid multimode plate reader was preheated to 37 °C. Prior to starting the assay, a half-area black 96-well plate was preheated within the plate reader. A volume of 5 μL of each of the tested samples was pipetted into separate wells of the plate and incubated in the warm plate reader for 1 min.

HeLa cells [1] = assay: MTT antiproliferative assay against HeLa cells; assay type: cell-based, Human
Protocol: The 3-(4,5-dimethylthiazol-2-yl)-2,5-diphenyltetrazolium bromide (MTT) assay was employed to evaluate the antiproliferative activities of the synthesized 7-deazahypoxathine analogues. The HeLa, PNT1A, or PANC-1 cell lines were assessed by trypsinizing and seeding 4 × 10^3 cells per well into 96-well plates. Synthesized compounds were dissolved in DMSO at a concentration of either 50 mM or 100 mM before cell treatment. Cells were grown for 24 h and then treated with compounds at concentrations ranging from 0.04 to 100 μM and incubated for 48 h in 200 μL media. Twenty microliters of MTT reagent in serum-free medium (5 mg/mL) was added to each well and incubated further for 2 h. Media was removed and the resulting formazan crystals were resolubilized in 200 μL of DMSO. A Thermomax Molecular Device plate reader was utilized to measure A490. Experiments were performed in quadruplicate and repeated at least twice for each compound. The control comprised of cells treated with 0.1% DMSO. One micromolar phenyl arsine oxide (PAO) was utilized as a positive killing control. […]

PNT1A cells = assay: MTT cytotoxicity assay against normal epithelial cell line PNT1A; assay type: cell-based; conditions: molecular formula strings CSV, read-out: PNT1A GI50
Protocol: The 3-(4,5-dimethylthiazol-2-yl)-2,5-diphenyltetrazolium bromide (MTT) assay was employed to evaluate the antiproliferative activities of the synthesized 7-deazahypoxathine analogues. The HeLa, PNT1A, or PANC-1 cell lines were assessed by trypsinizing and seeding 4 × 10^3 cells per well into 96-well plates. Synthesized compounds were dissolved in DMSO at a concentration of either 50 mM or 100 mM before cell treatment. Cells were grown for 24 h and then treated with compounds at concentrations ranging from 0.04 to 100 μM and incubated for 48 h in 200 μL media. Twenty microliters of MTT reagent in serum-free medium (5 mg/mL) was added to each well and incubated further for 2 h. Media was removed and the resulting formazan crystals were resolubilized in 200 μL of DMSO. A Thermomax Molecular Device plate reader was utilized to measure A490. Experiments were performed in quadruplicate and repeated at least twice for each compound. The control comprised of cells treated with 0.1% DMSO. One micromolar phenyl arsine oxide (PAO) was utilized as a positive killing control.

HeLa cells [2] = assay: Microtubule organization by immunolabeling in HeLa cells; assay type: cell-based, Human; conditions: 4 h; for effect on interphase microtubules / effect on spindle morphology: at GI50 concentrations
Protocol: To examine microtubule morphology in rigidin-treated cells, HeLa cells were incubated for 4 h in the presence or absence of test compound before being fixed with 3.7% formaldehyde in PBS and permeabilized with 0.1% Triton X-100 in PBS. After blocking the cells with 3% bovine serum albumin in PBS, they were probed with antibodies for the centromere marker CENP-B (Abcam, code ab25734) and tubulin (Sigma, code sc-53029), which were detected with Alexa Fluor-labeled secondary antibodies (Thermofisher). Hoechst 33342 (1 mg/mL, Thermofisher H3570) was used to stain DNA. Samples were mounted on glass slides and imaged using Andor Dragonfly 505 spinning disk confocal system mounted on an Olympus IX83 inverted microscope. Figures were created with Adobe Photoshop CS5. All drugs were resuspended in DMSO, and 0.1% DMSO served as a carrier control.

HeLa cells [3] = assay: Annexin V apoptosis assay and cell-fate tracking in HeLa cells; assay type: cell-based, Human; conditions: 20 nM; for apoptosis at the 30 hour time point (Annexin V fluorescence): 6 biological replicates, one-way ANOVA amongst compounds; for total numbers of cells that died following mitotic arrest: single-cell tracking, >130 cells per treatment
Protocol: To directly assess apoptosis in living cells, HeLa cells were plated (six biological replicates per condition) in 96-well Imagelock Plates (Sartorius BA-04855) at a density of 1,562.5 cells/cm^2. The following day, cells were placed in media containing IncuCyte Annexin V Dye (Sartorius 4642) supplemented with either 0.1% Dimethyl sulfoxide or test compounds (20 nM), and plates were placed in a Sartorius Incucyte S3 live cell imaging system. Plates were scanned hourly, with phase contrast and green fluorescence images were acquired at three positions per well. Raw fluorescence data was processed using Incucyte software, and Prism Graphpad was used for data visualization and statistical analysis. To track individual cell fates, combined phase contrast/fluorescence time lapse sequences were exported from multiple wells per condition, and cell fates individual cells were scored and tabulated using Graphpad Prism software.

[4] = Stability of compound in solution; assay type: physicochemical; conditions: in solution / over time
[5] = Aqueous solubility by laser nephelometry; assay type: physicochemical; conditions: initial analysis
[6] = design: method as in PMID 23927793; conditions: cell line not given; cited from earlier work
[7] = Homo sapiens, MTT assay, 48 h treatment, relative to DMSO control, two independent determinations, each in quadruplicate, read-out: GI50 (μM)± SD
[8] = 25 μM, averaged from two experiments
[9] = Homo sapiens, MTT, 48 h, average and SD from two independent determinations, each in quadruplicate (footnote c), read-out: GI50 (μM) ± SD

effect on in vitro tubulin polymerization (tubulin; 3 μM): promotes microtubule formation
Compound: CC(=O)O[C@H]1C(=O)[C@@]2(C)[C@H]([C@H](OC(=O)c3ccccc3)[C@]3(O)C[C@H](OC(=O)[C@H](O)[C@@H](NC(=O)c4ccccc4)c4ccccc4)C(C)=C1C3(C)C)[C@]1(OC(C)=O)CO[C@@H]1C[C@@H]2O [Paclitaxel, paclitaxel, reference compound]
effect on in vitro tubulin polymerization (tubulin; 3 μM, listed as paclitaxel): potent enhancement of microtubule formation

GI50 (HeLa cells [1]; [7]): 0.043 ± 0.002 µM
Compound: CC#CCCc1nc(=O)c2c(-c3ccccc3)c(C(=O)c3ccc(N4CCOCC4)cc3)[nH]c2[nH]1 [Compound 30, 6-(4-Morpholinobenzoyl)-2-(pent-3-yn-1-yl)-5-phenyl-1,7-dihydro-4H-pyrrolo[2,3-d]pyrimidin-4-one]
reduction in activity following isomerization to the internal alkyne (HeLa cells [1]; terminal versus internal alkyne analogues (1, 27 vs 31, 30)): 2 fold

GI50 (HeLa cells [1]; [7]): 0.062 ± 0.005 µM
Compound: C#CCCCc1nc(=O)c2c(-c3ccccc3)c(C(=O)c3ccccc3C)[nH]c2[nH]1 [Compound 21, 6-(2-Methylbenzoyl)-2-(pent-4-yn-1-yl)-5-phenyl-1,7-dihydro-4H-pyrrolo[2,3-d]pyrimidin-4-one]
GI50 (PNT1A cells; Homo sapiens, PNT1A): 53 ± 12 nM

GI50 (HeLa cells [1]; [9]): 0.444 ± 0.03 µM
aqueous solubility relative to the other compounds [5]: significantly more soluble
Compound: C#CCCCc1nc(=O)c2c(-c3ccccc3)c(C(=O)c3ccc(OCCN4CCOCC4)cc3)[nH]c2[nH]1 [Compound 34, 6-[4-(2-Morpholinoethoxy)benzoyl]-2-(pent-4-yn-1-yl)-5-phenyl-1,7-dihydro-4H-pyrrolo[2,3-d]pyrimidin-4-one]
decrease in antiproliferative activity compared to lead compound 1 (HeLa cells [1]): ~20 fold
effect on in vitro tubulin polymerization (tubulin; [8]): potent inhibition of microtubule assembly; also recorded: completely suppress tubulin polymerization
effect on interphase microtubules (HeLa cells [2]): no striking effects on interphase microtubules
effect on spindle morphology (HeLa cells [2]): remarkable effects on the spindle morphology
syntelic chromosome attachments (HeLa cells [2]; lower concentrations (GI25)): still prevalent

GI50 (HeLa cells [1]; [7]): 0.025 ± 0.002 µM
Compound: C#CCCCc1nc(=O)c2c(-c3ccccc3)c(C(=O)c3ccc(N4CCOCC4)cc3)[nH]c2[nH]1 [Compound 27, 6-(4-Morpholinobenzoyl)-2-(pent-4-yn-1-yl)-5-phenyl-1,7-dihydro-4H-pyrrolo[2,3-d]pyrimidin-4-one]
GI50 (PNT1A cells; Homo sapiens, PNT1A): 49 ± 20 nM

GI50 (HeLa cells [1]; [9]): 2.87 ± 0.103 µM
aqueous solubility relative to the other compounds [5]: significantly more soluble
Compound: C#CCCCc1nc(=O)c2c(-c3ccccc3)c(C(=O)c3ccc(OCCN4CCCC4)cc3)[nH]c2[nH]1 [Compound 35, 2-(Pent-4-yn-1-yl)-5-phenyl-6-{4-[2-(pyrrolidin-1-yl)ethoxy]benzoyl}-1,7-dihydro-4H-pyrrolo[2,3-d]pyrimidin-4-one]
decrease in antiproliferative activity compared to lead compound 1 (HeLa cells [1]): ~150 fold

More lines, now with the values behind:

Compound: C#CCCCc1nc(=O)c2c(-c3ccccc3C)c(C(=O)c3ccccc3)[nH]c2[nH]1 [Compound 13, 6-Benzoyl-2-(pent-4-yn-1-yl)-5-(o-tolyl)-1,7-dihydro-4H-pyrrolo[2,3-d]pyrimidin-4-one]
GI50 (HeLa cells [1]; [7]): 0.142 ± 0.044 µM

Compound: 6-[4-(2-Ethoxyethoxy)benzoyl]-5-(3-fluorophenyl)-2-(pent-4-yn-1-yl)-1,7-dihydro-4H-pyrrolo[2,3-d]pyrimidin-4-one [Compound 59]
GI50 (HeLa cells [1]; MTT, 48 h, average of eight repeats determined over 5 weeks (footnote d), read-out: GI50 (μM) ± SD): 0.016 ± 0.004 µM
effect on in vitro tubulin polymerization (tubulin; [8]): potent inhibition of microtubule assembly; also recorded: completely suppress tubulin polymerization
GI50 (PNT1A cells): 41 ± 11 nM
effect on interphase microtubules (HeLa cells [2]): no striking effects on interphase microtubules
effect on spindle morphology (HeLa cells [2]): remarkable effects on the spindle morphology
apoptosis at the 30 hour time point (Annexin V fluorescence) (HeLa cells [3]): no significant differences
total numbers of cells that died following mitotic arrest (HeLa cells [3]): 87%

Compound: 6-[4-(2-Ethoxyethoxy)benzoyl]-5-(6-fluoropyridin-2-yl)-2-(pent-4-yn-1-yl)-1,7-dihydro-4H-pyrrolo[2,3-d]pyrimidin-4-one [Compound 61]
GI50 (HeLa cells [1]; tested once, compound degraded in solution, read-out: GI50): 0.0224 µM
stability [4]: unstable over time; also recorded: clear degradation of the compound in solution

Compound: C#CCCCc1nc(=O)c2c(-c3c(C)cccc3C)c(C(=O)c3ccccc3)[nH]c2[nH]1 [Compound 14, 6-Benzoyl-5-(2,6-dimethylphenyl)-2-(pent-4-yn-1-yl)-1,7-dihydro-4H-pyrrolo[2,3-d]pyrimidin-4-one]
GI50 (HeLa cells [1]; [7]): 2.3 ± 0.09 µM

Compound: 5-(3,5-Difluorophenyl)-6-[4-(2-ethoxyethoxy)benzoyl]-2-(pent-4-yn-1-yl)-1,7-dihydro-4H-pyrrolo[2,3-d]pyrimidin-4-one [Compound 60]
GI50 (PNT1A cells): 48 ± 10 nM
effect on interphase microtubules (HeLa cells [2]): no striking effects on interphase microtubules
effect on spindle morphology (HeLa cells [2]): remarkable effects on the spindle morphology
apoptosis at the 30 hour time point (Annexin V fluorescence) (HeLa cells [3]): no significant differences
total numbers of cells that died following mitotic arrest (HeLa cells [3]): 85%

Compound: O=C(c1ccc(OCc2ccccc2)cc1)c1[nH]c2[nH]cnc(=O)c2c1-c1ccccc1 [Compound 32]
GI50 [6]: 45 ± 4 nM

Compound: C#CCCCc1nc(=O)c2c(-c3ccc(N4CCOCC4)cc3)c(C(=O)c3ccccc3)[nH]c2[nH]1 [Compound 15, 6-Benzoyl-5-(4-morpholinophenyl)-2-(pent-4-yn-1-yl)-1,7-dihydro-4H-pyrrolo[2,3-d]pyrimidin-4-one]
decrease in antiproliferative activity compared to lead compound 1 (HeLa cells [1]): 500 fold
GI50 (HeLa cells [1]; [7]): 11.3 ± 0.65 µM
